Seven molecules from paper PMC3379896 (ACS medicinal chemistry letters, 2012) can be followed below.

Assay [1] addresses T1, MMP-1 (Homo sapiens, UniProt P03956).
T1 sequence (P03956 100-469): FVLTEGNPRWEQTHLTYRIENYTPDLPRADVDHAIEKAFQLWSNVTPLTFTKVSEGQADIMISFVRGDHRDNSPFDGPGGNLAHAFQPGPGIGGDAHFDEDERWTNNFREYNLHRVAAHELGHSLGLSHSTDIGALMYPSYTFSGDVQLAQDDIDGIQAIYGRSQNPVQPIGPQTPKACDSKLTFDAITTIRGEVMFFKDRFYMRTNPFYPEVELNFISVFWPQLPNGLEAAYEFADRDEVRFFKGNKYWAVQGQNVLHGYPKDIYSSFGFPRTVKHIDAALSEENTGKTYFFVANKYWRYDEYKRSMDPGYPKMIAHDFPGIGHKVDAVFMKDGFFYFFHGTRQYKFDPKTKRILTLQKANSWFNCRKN
Nature of the assay: Kinetic inhibition of MMP-1. Format: biochemical. As to conditions: read-out: MMP-1 inhibition at fixed concentration.

Assay [2] has as its target MMP-14 (Homo sapiens, UniProt P50281). Put plainly: Kinetic inhibition of MMP-14. As to conditions: slow-binding.
Assay [3] deals with T2, MMP-7 (Homo sapiens, UniProt P09237).
T2 sequence (P09237 95-267): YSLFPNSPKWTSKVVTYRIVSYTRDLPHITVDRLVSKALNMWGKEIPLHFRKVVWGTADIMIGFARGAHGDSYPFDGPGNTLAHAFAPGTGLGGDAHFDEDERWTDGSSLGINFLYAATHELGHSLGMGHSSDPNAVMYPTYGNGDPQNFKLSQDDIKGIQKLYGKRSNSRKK
Put plainly: Kinetic inhibition of MMP-7. The following applies: read-out: MMP-7 inhibition at fixed concentration. It counts as biochemical.

Turning to `O=S(=O)(CC1CS1)c1ccc(Oc2ccc(F)cc2)cc1` (stereo not drawn) [Compound 19a], the inhibition at 20 µM in assay [1] lay within 0 to 3%. Also, in assay [2], the “MMP-14 inhibition, in words” value is reported as “include MMP-14 in their spectrum of inhibition”. Take `O=S(=O)(CC1CS1)c1ccc(Oc2cccc(F)c2)cc1` (stereo not drawn) [Compound 19b]: in assay [3], the inhibition at 125 µM lay in the range of 0 to 3%. Besides, in assay [2], the “MMP-14 inhibition, in words” value is “include MMP-14 in their spectrum of inhibition”. In the case of `O=S(=O)(CC1CS1)c1ccc(Oc2ccc(I)cc2)cc1` (stereo not drawn) [Compound 22a], in assay [3], the inhibition at 10 µM lay in the range of 0 to 3%. Also, in assay [1], the inhibition at 60 µM is 0 to 3%. Moreover, the “MMP-14 inhibition, in words” value in assay [2] is “include MMP-14 in their spectrum of inhibition”.

With `O=S(=O)(CC1CS1)c1ccc(Oc2ccc(CO)cc2)cc1` (stereo not drawn) [Compound 26], the “MMP-14 inhibition, in words” value in assay [2] is “include MMP-14 in their spectrum of inhibition”.

Turning to `CC(C)Oc1ccc(Oc2ccc(S(=O)(=O)CC3CS3)cc2)cc1` (stereo not drawn) [Compound 32], the “MMP-14 inhibition, in words” value in assay [2] is “include MMP-14 in their spectrum of inhibition”.

Take `COCOc1ccc(Oc2ccc(S(=O)(=O)CC3CS3)cc2)cc1` (stereo not drawn) [Compound 33a]: the “MMP-14 inhibition, in words” value in assay [2] is listed as “include MMP-14 in their spectrum of inhibition”.

As to `O=S(=O)(CC1CS1)c1ccc(Oc2ccc(OC(F)(F)F)cc2)cc1` (stereo not drawn) [Compound 38a], the inhibition at 20 µM in assay [3] lay in the range of 0 to 3%. Moreover, in assay [2], the “MMP-14 inhibition, in words” value is listed as “include MMP-14 in their spectrum of inhibition”.
